According to patent US11608331B2 (priority 2021, dated 2023):
Where two headings read alike, the source gives them in different places.

Key:
in vitro = details: human
SARS-CoV-2 Mpro = SARS-CoV-2 Mpro (Severe acute respiratory syndrome coronavirus 2, UniProt P0DTD1); assay: Main protease (Mpro) assay, 3CL Protease assay kit; assay type: biochemical
[1] = tested on: SARS-CoV-2 strain NRC-03-nhCoV; assay: microbe, parasite or virus in culture; assay type: cell-based
SARS-CoV-2 PLpro = SARS-CoV-2 PLpro (Severe acute respiratory syndrome coronavirus 2, UniProt P0DTD1); assay: Papain-like protease (PLpro) assay; assay type: biochemical; details: for IC50: dose response curve, read-out: IC50 against SARS-CoV-2 PLpro
human furin protease = target: T1, human furin protease (Homo sapiens, UniProt P09958); assay: Furin protease assay; assay type: biochemical
T1 construct: purchased BPS Bioscience 78040
T1 sequence (P09958 108-794): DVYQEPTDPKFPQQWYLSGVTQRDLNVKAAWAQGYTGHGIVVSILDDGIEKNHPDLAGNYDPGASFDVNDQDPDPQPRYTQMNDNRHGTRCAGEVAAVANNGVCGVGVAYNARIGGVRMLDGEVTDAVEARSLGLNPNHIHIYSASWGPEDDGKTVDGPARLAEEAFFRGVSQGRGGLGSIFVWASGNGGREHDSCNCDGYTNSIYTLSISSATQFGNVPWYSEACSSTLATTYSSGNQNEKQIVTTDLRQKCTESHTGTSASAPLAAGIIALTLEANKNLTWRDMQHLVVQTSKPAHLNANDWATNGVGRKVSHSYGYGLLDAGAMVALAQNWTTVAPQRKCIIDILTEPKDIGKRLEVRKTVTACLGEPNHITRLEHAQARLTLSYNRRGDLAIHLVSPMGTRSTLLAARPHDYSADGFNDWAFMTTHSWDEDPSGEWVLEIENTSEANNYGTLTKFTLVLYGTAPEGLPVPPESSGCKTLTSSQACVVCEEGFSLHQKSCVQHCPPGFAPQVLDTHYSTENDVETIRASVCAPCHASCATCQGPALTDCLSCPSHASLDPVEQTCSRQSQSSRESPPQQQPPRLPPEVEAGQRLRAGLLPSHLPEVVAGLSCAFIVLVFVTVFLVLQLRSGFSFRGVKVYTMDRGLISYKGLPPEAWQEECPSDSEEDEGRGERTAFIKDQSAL

[2] = read-out: IC50 against human furin protease

Row | SMILES | IC50 (in vitro) | inhibition at 100 µg/mL (SARS-CoV-2 Mpro; read-out: inhibition activity against Mpro enzyme (inhibition percentage)) | IC50 ([1]; Severe acute respiratory syndrome coronavirus 2, Vero C1008, 72 h, read-out: IC50 inhibition activity against SARS-CoV-2) | IC50 (SARS-CoV-2 PLpro) | inhibition activity against SARS-CoV-2 PLpro (SARS-CoV-2 PLpro; screening, mean±SEM of 3 replicas) | IC50 (human furin protease; [2]) | IC50 (SARS-CoV-2 Mpro; compound 13M, FIG. 10B-10C, read-out: IC50 against Mpro enzyme (converted)) | IC50 ([1]; Severe acute respiratory syndrome coronavirus 2, Vero C1008, compound 13M, FIG. 10A, read-out: antiviral activity in vitro IC50) | IC50 (human furin protease) | IC50 at 24 h (in vitro) | IC50 ([1]; Severe acute respiratory syndrome coronavirus 2, Vero C1008, Vero-E6 cells, strain NRC-03-nhCoV, 72 h, read-out: IC50 inhibition activity against SARS-CoV-2)
1 | COc1cc(C(NC2=NC(=O)C(CC(=O)Nc3ccc(C(=O)O)cc3)S2)c2c(O)[nH]c(=O)[nH]c2=O)ccc1O (stereo not shown) [Compound 7] | 1670 nM | 31 ± 2% | 770 nM | 85 nM | 56.4% | 290 nM | – | – | – | – | –
2 | N=C(N/N=C/c1ccncc1)c1nonc1NCNc1nonc1C(=N)N/N=C/c1ccncc1 [Compound 13M] | – | – | – | – | – | – | 13400 nM | ~8 µg/mL | 86200 nM | – | –
3 | N=C(N/N=C/c1ccccc1O)c1nonc1NCNc1nonc1C(=N)N/N=C/c1ccccc1O [Compound 13] | – | – | – | 63 nM | – | 290 nM | – | – | – | 410 nM | 110 nM
